A word on the inhibition: it is the relative decrease from the control value, in per cent. The term IC50 denotes the midpoint of a concentration-inhibition curve.

Assay [1] concerns KPL-4 breast cancer cell line. The experiment in a line: Tumor cell proliferation assay (CellTiter-Glo), KPL-4. The class given is cell-based. The settings on record: Homo sapiens, KPL4, 72 h drug exposure; for inhibition at 1.67 µM: read-out: KPL-4 median inhibition at 1.67 μM (%). As to the method:
(§1) Biological Assay 4.0: Tumor Cell Proliferation Assays
(§2) Compounds were tested in a cell-based assay that measures the capacity of the compounds to inhibit tumour cell proliferation following a 72 h drug exposure. Cell viability is determined using CellTiter-Glow® (CTG, Promega, cat# G7571/2/3). The CellTiter-Glo® Luminescent Cell Viability Assay is a homogeneous method to determine the number of viable cells in culture. Detection is based on using the luciferase reaction to measure the amount of ATP from viable cells. The amount of ATP in cells correlates with cell viability. Within minutes after a loss of membrane integrity, cells lose the ability to synthesize ATP, and endogenous ATPases destroy any remaining ATP; thus the levels of ATP fall precipitously.
(§3) Cells were plated at 3000-5000 cells/well (depending on the cell lines) in 90 μL growth medium on MTPs (Corning; #3603, black plate, clear flat bottom). For each cell line assayed, cells were plated onto a separate plate for determination of […] at t=0 hour and t=72 hour time points. Following overnight incubation at 37° C., chemiluminescence values for the t=0 samples were determined after adding 10 μl medium and 100 μl CTG solution according to manufacture protocol. Plates for the t=72 hour time points were treated with compounds diluted into growth medium at ten times final concentration added in 10 μL to the cell culture plate. Cells were then incubated for 72 hours at 37° C. Chemiluminescence values for the t=72 hour samples were determined. […] Experiments were controlled using a reference compound as standard.
(§4) Preferred compounds of the present invention show in this assay an inhibition of cell growth of cell lines such as the KPL-4 breast cancer cell line and the MCF-7 breast tumour cell line ([…], hormone dependent) with a median IC50 of <10 μM, more preferably, median IC50≦1 μM.

Assay [2] addresses T1, His-tagged human recombinant kinase full-length Akt2 (Homo sapiens, UniProt P31751).
T1 construct: His-tagged human recombinant kinase full-length Akt2; His; purchased Invitrogen PV 3975; host or cells: insect cells
The experiment in a line: Akt2 kinase assay (TR-FRET). The class given is biochemical. The settings on record: 10 μM ATP, 60 min at 22° C.; read-out: Akt2, median IC50. The source says: Biological Assay 2.0: Akt2 Kinase Assay
Akt2 inhibitory activity of compounds of the present invention was quantified employing the Akt2 TR-FRET assay as described in the following paragraphs.
His-tagged human recombinant kinase full-length Akt2 expressed in insect cells and activated by PDK1 was purchased from Invitrogen (part number PV 3975). As substrate for the kinase reaction the biotinylated peptide biotin-Ahx-KKLNRTLSFAEPG (SEQ ID NO: 1) (C-terminus in amide form) was used which can be purchased e.g. from the company Biosynthan GmbH (Berlin-Buch, Germany).
(§5) For the assay 50 nl of a 100fold concentrated solution of the test compound in DMSO was pipetted into a black low volume 384well microtiter plate (Greiner Bio-One, Frickenhausen, Germany), 2 μl of a solution of Akt2 in assay buffer [50 mM TRIS/HCl pH 7.5, 5 mM MgCl2, 1 mM dithiothreitol, 0.02% (v/v) Triton X-100 (Sigma)] were added and the mixture was incubated for 15 min at 22° C. to allow prebinding of the test compounds to the enzyme before the start of the kinase reaction. Then the kinase reaction was started by the addition of 3 μl of a solution of adenosine-tri-phosphate (ATP, 16.7 μM=>final conc. in the 5 μl assay volume is 10 μM) and substrate (1.67 μM=>final conc. in the 5 μl assay volume is 1 μM) in assay buffer and the resulting mixture was incubated for a reaction time of 60 min at 22° C. […]
The resulting mixture was incubated 1 h at 22° C. to allow the binding of the biotinylated phosphorylated peptide to the streptavidine-XL665 and the antibodies. Subsequently the amount of phosphorylated substrate was evaluated by measurement of the resonance energy transfer from the anti-mouse-IgG-Eu-Chelate to the streptavidine-XL665. Therefore, the fluorescence emissions at 620 nm and 665 nm after excitation at 350 nm was measured in a TR-FRET reader, e.g. a Rubystar (BMG Labtechnologies, Offenburg, Germany) or a Viewlux (Perkin-Elmer). […]

For assay [3], the system named is p-AKT1/2/3-S473. The experiment in a line: Cellular p-AKT1/2/3-S473 assay in KPL-4 cells. The assay is classed as cell-based. Conditions: Homo sapiens, KPL4, read-out: pAKT-S473 median IC50, 2 hours treatment, read-out: pAKT-S743 median IC50. The procedure: (§6) The molecular mechanism of action was investigated in a set of experiments to assess the inhibition of the PI3K-AKT-mTOR pathway in responsive cell lines such as KPL-4 breast tumour cell line (PIK3CA^H1047R, HER2^O/E and hormone independent). The phospho-substrates of PI3K-AKT-mTOR axis were used as the readouts to reflect pathway inhibition. Cells were seeded at 60-80% confluency per well in 96-well cell culture plates. After overnight incubation at 37° C. 5% CO2, cells were treated with compounds and vehicle at 37° C. for 2 hours. Thereafter, cells were lysed in 150 μl lysis buffer and the levels of phospho-AKT at 1308 and S473 and p-4E-BP1 at T70 sites were determined with the corresponding AlphaScreen® SureFire® assay kits (Perkin Elmer: 4E-BPI Assay Kit Cat # TRG4E2S10K; Akt 1/2/3 p-Ser 473 #TGRA4S500 and Akt 1/2/3 p-Thr 308 #TGRA3S500 as well as IgG detection Kit #6760617M) as described in the manuals. All measurements where at least done in duplicates and confirmed by independent repetition. Alternatively pAKT-S473 was measured using the “Akt Duplex” of the MULTI-SPOT® Assay System (Fa. Meso Scale Discovery, Cat# N41100B-1) following manufacturers instructions. Each assay used 20 μg of protein extract and measured total AKT and p-AKT content simultaneously in one well. All measurements where at least done in duplicates and confirmed by independent repetition. Values for P-AKT are expressed as percentage of P-AKT level compared to total-AKT content of the extracts.

Assay [4] concerns the target T2, His-tagged human recombinant kinase full-length Akt1 (Homo sapiens, UniProt P31749).
T2 construct: His-tagged human recombinant kinase full-length Akt1; His; purchased Invitrogen PV 3599; host or cells: insect cells
The experiment in a line: Akt1 kinase assay (TR-FRET). The class given is biochemical. Conditions: 10 μM ATP, 60 min at 22° C.; read-out: Akt1, median IC50.
Text: Biological Assay 1.0: Akt1 Kinase Assay
Akt1 inhibitory activity of compounds of the present invention was quantified employing the Akt1 TR-FRET assay as described in the following paragraphs.
His-tagged human recombinant kinase full-length Akt1 expressed in insect cells was purchased form Invitrogen (part number PV 3599). As substrate for the kinase reaction the biotinylated peptide biotin-Ahx-KKLNRTLSFAEPG (SEQ ID NO: 1) (C-terminus in amide form) was used which can be purchased e.g. from the company Biosynthan GmbH (Berlin-Buch, Germany).
as §5, with “Akt1” for “Akt2”, “(Sigma)]were” for “(Sigma)] were”
The resulting mixture was incubated 1 h at 22° C. to allow the binding of the biotinylated phosphorylated peptide to the streptavidine-XL665 and the antibodies. Subsequently the amount of phosphorylated substrate was evaluated by measurement of the resonance energy transfer from the anti-mouse-IgG-Eu-Chelate to the streptavidine-XL665. Therefore, the fluorescence emissions at 620 nm and 665 nm after excitation at 350 nm was measured in a HTRF reader, e.g. a Rubystar (BMG Labtechnologies, Offenburg, Germany) or a Viewlux (Perkin-Elmer). […]

The subject of assay [5] is MCF-7 breast tumour cell line. The experiment in a line: Tumor cell proliferation assay (CellTiter-Glo), MCF-7. The assay is classed as cell-based. The settings on record: Homo sapiens, MCF7, 72 h drug exposure; for inhibition at 1.67 µM: read-out: MCF-7 median inhibition at 1.67 μM (%). As to the method:
as §1, §2, §3, §4
(ATP-based viability assays read luminescence as a measure of living cells.)

In assay [6] the test system is p-4E-BP1-T70. The experiment in a line: Cellular p-4E-BP1-T70 assay in KPL-4 cells. The settings on record: Homo sapiens, KPL4, 2 hours treatment, read-out: P4EBP1-T70 median IC50. The class given is cell-based. The procedure: as §6

T1 sequence (P31751 whole entry): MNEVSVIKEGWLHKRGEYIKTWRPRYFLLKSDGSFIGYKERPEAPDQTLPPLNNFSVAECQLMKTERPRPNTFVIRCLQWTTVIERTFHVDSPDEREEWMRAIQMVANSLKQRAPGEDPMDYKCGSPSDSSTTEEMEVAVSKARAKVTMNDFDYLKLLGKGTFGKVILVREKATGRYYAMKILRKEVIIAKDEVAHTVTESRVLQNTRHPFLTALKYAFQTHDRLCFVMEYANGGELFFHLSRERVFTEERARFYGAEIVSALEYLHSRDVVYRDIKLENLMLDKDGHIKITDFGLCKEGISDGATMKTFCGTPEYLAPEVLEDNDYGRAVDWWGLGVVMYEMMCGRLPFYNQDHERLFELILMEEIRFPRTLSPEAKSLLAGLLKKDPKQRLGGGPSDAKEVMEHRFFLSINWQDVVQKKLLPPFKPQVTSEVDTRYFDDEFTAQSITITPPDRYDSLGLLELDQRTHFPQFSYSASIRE
T2 sequence (P31749 whole entry): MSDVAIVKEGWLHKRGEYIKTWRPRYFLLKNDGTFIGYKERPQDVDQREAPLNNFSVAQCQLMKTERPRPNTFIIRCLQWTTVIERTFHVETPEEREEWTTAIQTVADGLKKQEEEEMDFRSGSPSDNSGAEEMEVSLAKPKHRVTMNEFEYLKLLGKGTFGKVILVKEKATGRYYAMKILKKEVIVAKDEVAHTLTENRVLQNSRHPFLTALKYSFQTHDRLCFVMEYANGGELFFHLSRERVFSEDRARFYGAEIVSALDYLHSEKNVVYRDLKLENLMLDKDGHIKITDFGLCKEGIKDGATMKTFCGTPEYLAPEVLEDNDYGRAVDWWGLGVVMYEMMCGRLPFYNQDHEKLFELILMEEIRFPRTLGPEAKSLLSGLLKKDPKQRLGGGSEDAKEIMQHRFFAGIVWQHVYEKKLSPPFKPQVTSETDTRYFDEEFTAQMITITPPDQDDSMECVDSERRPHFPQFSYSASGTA

Consider `NC1(c2ccc(-c3nn4c(C(F)(F)F)cc(C(F)(F)F)nc4c3-c3ccccc3)cc2)CCC1` [Example 3, 1-{4-[3-Phenyl-5,7-bis(trifluoromethyl)pyrazolo[1,5-a]pyrimidin-2-yl]phenyl}cyclobutanamine], for which the inhibition at 1.67 µM in assay [1] turned out to be 6.6%; in assay [5], 25.6%. The IC50 in assay [1] came out at 2400 nM; in assay [2], 860 nM; in assay [3], 1800 nM; in assay [4], 320 nM; in assay [5] it was 2000 nM; in assay [6], 3300 nM.
Take `Cc1cc(C)n2nc(-c3ccc(C4(N)CCC4)cc3)c(-c3ccccc3)c2n1` [Example 1, 1-[4-(5,7-Dimethyl-3-phenylpyrazolo[1,5-a]pyrimidin-2-yl)-phenyl]cyclobutanamine]: the inhibition at 1.67 µM came to 29.8% in assay [1] and 47.4% in assay [5]. Moreover, the IC50 in assay [1] amounted to 1900 nM; in assay [2], 460 nM; in assay [3], 130 nM; in assay [4] it was 66 nM; in assay [5], 1800 nM; in assay [6], 1800 nM.
As to `CCc1cc(CC)n2nc(-c3ccc(C4(N)CCC4)cc3)c(-c3ccccc3)c2n1` [Example 2, 1-[4-(5,7-Diethyl-3-phenylpyrazolo[1,5-a]pyrimidin-2-yl)phenyl]-cyclobutanamine], the inhibition at 1.67 µM in assay [1] came to 7.1%; in assay [5], 24.5%. Besides, the IC50 in assay [1] was 2200 nM; in assay [2], 410 nM; in assay [3], 1700 nM; in assay [4], 410 nM; in assay [5], 2000 nM; in assay [6] it was 3700 nM.
